In PubChem BioAssay (NCI):
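Five concentrations, 48 hours, 96-well plates. Abbreviation: GI50, concentration required for 50% inhibition of growth. TGI: concentration producing complete growth inhibition.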

Experiments:
Test in all cases: NCI anticancer screen, dose series, 48 h
HCT-116 colon = test system: HCT-116 colon
HCT-15 colon = test system: HCT-15 colon
HT29 colon = test system: HT29 colon
K-562 leukemia = test system: K-562 leukemia
PC-3 prostate = test system: PC-3 prostate
SF-268 CNS = test system: SF-268 CNS
SW-620 colon = test system: SW-620 colon
T-47D breast = test system: T-47D breast
UACC-62 melanoma = test system: UACC-62 melanoma
HCC-2998 colon = test system: HCC-2998 colon

COc1ccc(OC)c(-c2cc(C(=O)O)c3cc4ccccc4cc3n2)c1 showed a TGI (HCT-116 colon) of over 100 µM, a TGI (HCT-15 colon) of over 100 µM and a TGI (HT29 colon) of over 100 µM. The TGI (K-562 leukemia) was over 100 µM, the TGI (PC-3 prostate) was over 100 µM and the TGI (SF-268 CNS) was over 100 µM. It also gave a TGI (SW-620 colon) of over 100 µM, a TGI (T-47D breast) of over 100 µM and a TGI (UACC-62 melanoma) of over 100 µM.
O=[N+]([O-])c1cc([N+](=O)[O-])c(C(Cl)C(Cl)c2ccccc2)cc1C(Cl)C(Cl)c1ccccc1 (centres undefined) gave a TGI (HCC-2998 colon) of 3.33 µM, a TGI (HCT-116 colon) of 2.69 µM and a TGI (HCT-15 colon) of 3.12 µM. It also gave a TGI (HT29 colon) of 4.67 µM, a TGI (K-562 leukemia) of 3.58 µM and a TGI (SF-268 CNS) of 4.02 µM. The TGI (SW-620 colon) was 3.46 µM and the TGI (UACC-62 melanoma) was 3.7 µM.
With Cc1cc2c(=O)c3ccccc3oc2c(C#N)c1C the TGI (HCC-2998 colon) was over 100 µM, the TGI (HCT-116 colon) was over 100 µM and the TGI (HT29 colon) was over 100 µM. For the same compound, the TGI (K-562 leukemia) was over 100 µM, the TGI (PC-3 prostate) was over 100 µM and the TGI (SF-268 CNS) was over 100 µM. It also gave a TGI (SW-620 colon) of over 100 µM and a TGI (T-47D breast) of over 100 µM.
Compound C(=C\c1nc2ccccc2s1)/c1ccc(N2CCOCC2)s1 has a GI50 (HCT-116 colon) of 59.9 µM, a TGI (HCT-116 colon) of over 100 µM and a GI50 (HCT-15 colon) of 17.1 µM. The TGI (HCT-15 colon) was over 100 µM, the GI50 (HT29 colon) was 20.8 µM and the TGI (HT29 colon) was over 100 µM. It also gave a GI50 (K-562 leukemia) of over 100 µM, a TGI (K-562 leukemia) of over 100 µM and a GI50 (PC-3 prostate) of 33.7 µM. The TGI (PC-3 prostate) was over 100 µM, the GI50 (SF-268 CNS) was 44 µM and the TGI (SF-268 CNS) was over 100 µM. It also gave a GI50 (SW-620 colon) of over 100 µM, a TGI (SW-620 colon) of over 100 µM and a GI50 (T-47D breast) of 71 µM. It also gave a TGI (T-47D breast) of over 100 µM, a GI50 (UACC-62 melanoma) of 7.94 µM and a TGI (UACC-62 melanoma) of over 100 µM.
For CCOC(=O)NN(C(=O)OCC)C(C(=O)c1ccc(Cl)cc1)=C1NCCN1, the TGI (HCC-2998 colon) was over 100 µM, the TGI (HCT-116 colon) was over 100 µM and the TGI (HT29 colon) was over 100 µM. For the same compound, the TGI (K-562 leukemia) was over 100 µM, the TGI (SF-268 CNS) was over 100 µM and the TGI (SW-620 colon) was over 100 µM. For the same compound, the TGI (UACC-62 melanoma) was over 100 µM.
In the case of O=C(NCCCCCCNC(=O)NC1OCC(O)C(O)C1O)NC1OCC(O)C(O)C1O (centres undefined), the TGI (HCT-116 colon) is reported as over 100 µM, the TGI (HCT-15 colon) is reported as over 100 µM and the TGI (HT29 colon) is reported as over 100 µM. The TGI (K-562 leukemia) was over 100 µM, the TGI (SF-268 CNS) was over 100 µM and the TGI (SW-620 colon) was over 100 µM. The TGI (UACC-62 melanoma) was over 100 µM.
N#C/C(=C\c1ccc([N+](=O)[O-])s1)c1nc2cc(Br)ccc2s1 was tested, and the GI50 (HCT-116 colon) was 0.0713 µM, the TGI (HCT-116 colon) was 0.388 µM and the GI50 (HCT-15 colon) was 0.0707 µM. The TGI (HCT-15 colon) was 0.264 µM, the GI50 (HT29 colon) was 1.92 µM and the TGI (HT29 colon) was over 100 µM. For the same compound, the GI50 (K-562 leukemia) was 0.0561 µM, the TGI (K-562 leukemia) was over 40.6 µM and the GI50 (PC-3 prostate) was 0.435 µM. The TGI (PC-3 prostate) was 2.54 µM, the GI50 (SF-268 CNS) was 0.468 µM and the TGI (SF-268 CNS) was over 100 µM. The GI50 (SW-620 colon) was 0.244 µM and the TGI (SW-620 colon) was 1.06 µM.
CO[C@]12CCC(=O)N1C=Cc1c2[nH]c2ccccc12 was tested, and the TGI (HCC-2998 colon) was over 100 µM, the TGI (HCT-116 colon) was over 100 µM and the TGI (HCT-15 colon) was over 100 µM. It also gave a TGI (HT29 colon) of over 100 µM, a TGI (K-562 leukemia) of over 100 µM and a TGI (SF-268 CNS) of over 100 µM. For the same compound, the TGI (SW-620 colon) was over 100 µM and the TGI (UACC-62 melanoma) was over 100 µM.
In the case of CC(C)N(C(=O)C12C3C4C5C3C1(C#N)C5C42)C(C)C (centres undefined), the TGI (HCC-2998 colon) is reported as over 100 µM, the TGI (HCT-116 colon) is reported as over 100 µM and the TGI (HCT-15 colon) is reported as over 100 µM. The TGI (HT29 colon) was over 100 µM, the TGI (K-562 leukemia) was over 100 µM and the TGI (SF-268 CNS) was over 100 µM. It also gave a TGI (SW-620 colon) of over 100 µM and a TGI (UACC-62 melanoma) of over 100 µM.
N#CC(C(=O)C(=O)Nc1ccc(Cl)c(Cl)c1)c1ccc(Cl)cc1 (centres undefined) gave a TGI (HCC-2998 colon) of over 100 µM, a TGI (HCT-116 colon) of 49.8 µM and a TGI (HCT-15 colon) of over 100 µM. The TGI (HT29 colon) was over 100 µM, the TGI (K-562 leukemia) was 60.1 µM and the TGI (SF-268 CNS) was over 100 µM. The TGI (SW-620 colon) was 30.8 µM and the TGI (UACC-62 melanoma) was over 100 µM.
CC(=O)OCc1c(C)c2ccccc2n1C(C)=O was tested, and the TGI (HCC-2998 colon) was over 100 µM, the TGI (HCT-116 colon) was over 100 µM and the TGI (HT29 colon) was over 100 µM. The TGI (K-562 leukemia) was 71.5 µM, the TGI (SF-268 CNS) was over 100 µM and the TGI (SW-620 colon) was over 100 µM. For the same compound, the TGI (UACC-62 melanoma) was over 100 µM.
Work on CN1CCc2cc(O)c3cc2C1Cc1ccc(cc1)Oc1cc(ccc1O)CC1c2c(cc4c(c2O3)OCO4)CCN1C (centres undefined) yielded a TGI (HCC-2998 colon) of 41.7 µM, a TGI (HCT-116 colon) of over 100 µM and a TGI (HCT-15 colon) of 60 µM. It also gave a TGI (HT29 colon) of 74.4 µM, a TGI (K-562 leukemia) of 39.4 µM and a TGI (SF-268 CNS) of over 100 µM. The TGI (UACC-62 melanoma) was 47.5 µM.
